From patent publication US20220079139A1, “CYCLOSPORIN ANALOG AND USE THEREOF” (Farsight Medical Technology (Shanghai) Co., Ltd., priority 2019, published 2022) come the findings set out here.

The target of one assay is Cyclophilin A (Homo sapiens, UniProt P62937). The assay can be described thus: Cyclophilin inhibition binding, competitive ELISA (Cyclophilin A). Particulars: human recombinant cyclophilin, read-out: CypA EC50. The method, then: (§1) The cyclophilin inhibition binding activity of compounds disclosed herein was determined using a competitive ELISA adapted from the methods described by Quesniaux et al. (Eur. J Immunol., 1987, 17:1359-1365). Activated ester of succinyl spacers bound to D-Lys^8-cylosporine A (D-Lys^8-Cs) are coupled to bovine serum albumin (BSA) through D-lysyl residue in position 8. BSA is dissolved in 0.1 M borate buffer, pH 9.0 (4 mg in 1.4 ml). A hundredfold molar excess of D-Lys^8-Cs dissolved in dimethyl formamide (0.6 ml) is added dropwise to the BSA under vigorous stirring. The coupling reaction is performed for 2 to 3 hours at room temperature under mild stirring and the conjugate obtained is extensively dialyzed against phosphate-buffered saline (PBS, pH 7.4).
Sequence of Cyclophilin A (P62937 whole entry): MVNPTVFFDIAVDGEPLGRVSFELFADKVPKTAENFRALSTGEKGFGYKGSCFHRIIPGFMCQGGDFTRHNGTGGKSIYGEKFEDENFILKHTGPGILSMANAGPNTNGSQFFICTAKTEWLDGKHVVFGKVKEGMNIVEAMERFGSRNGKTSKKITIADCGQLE
(§2) Microtiter Plates are coated with D-Lys^8-Cs-BSA conjugate (2 μg/ml in PBS for 24 hours at 4° C.). Titration Plates are washed with Tween®/PBS and with PBS alone. To block nonspecific binding, 2% BSA/PBS (pH 7.4) is added to the wells and allowed to incubate for 2 hours at 37° C. A five-fold dilution series of the compound to be tested is made in ethanol in a separate microtiter plate. The starting concentration is 0.1 mg/mL for assays with human recombinant cyclophilin. 198 μL of 0.1 μg/mL cyclophilin solution is added to the microtiter plate immediately followed by 2 μL of diluted cyclosporine A (used as a reference compound) or the compound of the invention. The reaction between coated BSA-Cs conjugate, free cyclosporine A and cyclophilin is allowed to equilibrate overnight at 4° C. Cyclophilin is detected with anti-cyclophilin rabbit serum diluted in PBS containing 1% BSA and incubates overnight at 4° C. Titration Plates are washed as described above. Bound rabbit antibodies are then detected by goat anti-rabbit IgG conjugated to alkaline phosphatase and diluted in 1% BSA-PBS and allowed to incubate for 2 hours at 37° C. Titration Plates are washed as described above. […] The results are expressed as an EC50, which is the concentration of the compound of the invention required to achieve 50% inhibition.

In another assay the target is Cyclophilin D (Homo sapiens, UniProt P30405). The experiment in a line: Cyclophilin inhibition binding, competitive ELISA (Cyclophilin D). Particulars: human recombinant cyclophilin, read-out: CypD EC50. The method, then: as §1, §2
Sequence of Cyclophilin D (P30405 30-207): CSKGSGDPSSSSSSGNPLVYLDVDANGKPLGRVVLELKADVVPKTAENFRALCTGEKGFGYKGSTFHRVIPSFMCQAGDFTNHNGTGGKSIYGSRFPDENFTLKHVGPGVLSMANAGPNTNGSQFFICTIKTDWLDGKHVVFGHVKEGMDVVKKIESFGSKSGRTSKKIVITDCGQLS
(In general: An ELISA detects its analyte on a solid surface through an enzyme-linked reagent.)

Regarding `C/C=C/C[C@@H](C)[C@@H](O)[C@H]1C(=O)N[C@@H](CC)C(=O)N(C)[C@H](OCCN2CCCC2)C(=O)N(C)[C@@H](CC(C)C)C(=O)N[C@@H](C(C)C)C(=O)N(C)[C@@H](CC(C)C)C(=O)N[C@@H](C)C(=O)N[C@H](C)C(=O)N(C)[C@@H](CC(C)C)C(=O)N(C)[C@@H](CC(C)C)C(=O)N(C)[C@@H](C(C)C)C(=O)N1C` [Entry 7], the 50% effective concentration (EC50) (in general, the midpoint of the concentration-response curve) at Cyclophilin A was 12 nM; at Cyclophilin D, 1200 nM.

Consider `C/C=C/C[C@@H](C)[C@@H](O)[C@H]1C(=O)N[C@@H](CC)C(=O)N(C)[C@H](OCCN(C)C(C)C)C(=O)N(C)[C@@H](CC(C)C)C(=O)N[C@@H](C(C)C)C(=O)N(C)[C@@H](CC(C)C)C(=O)N[C@@H](C)C(=O)N[C@H](C)C(=O)N(C)[C@@H](CC(C)C)C(=O)N(C)[C@@H](CC(C)C)C(=O)N(C)[C@@H](C(C)C)C(=O)N1C` [Entry 2], for which the EC50 amounted to 202 nM on Cyclophilin A and 3550 nM on Cyclophilin D.

For the compound `C/C=C/C[C@@H](C)[C@@H](O)[C@H]1C(=O)N[C@@H](CC)C(=O)N(C)[C@H](OCCN2CCCCC2)C(=O)N(C)[C@@H](CC(C)C)C(=O)N[C@@H](C(C)C)C(=O)N(C)[C@@H](CC(C)C)C(=O)N[C@@H](C)C(=O)N[C@H](C)C(=O)N(C)[C@@H](CC(C)C)C(=O)N(C)[C@@H](CC(C)C)C(=O)N(C)[C@@H](C(C)C)C(=O)N1C` [Entry 6], the half-maximal effective concentration (EC50) on Cyclophilin A was found to be 118 nM; on Cyclophilin D it was 2500 nM.

For `C/C=C/C[C@@H](C)[C@@H](O)[C@H]1C(=O)N[C@@H](CC)C(=O)N(C)[C@H](OCCCN)C(=O)N(C)[C@@H](CC(C)C)C(=O)N[C@@H](C(C)C)C(=O)N(C)[C@@H](CC(C)C)C(=O)N[C@@H](C)C(=O)N[C@H](C)C(=O)N(C)[C@@H](CC(C)C)C(=O)N(C)[C@@H](CC(C)C)C(=O)N(C)[C@@H](C(C)C)C(=O)N1C` [Entry 3], the EC50 on Cyclophilin A worked out at 14 nM.

For the compound `C/C=C/C[C@@H](C)[C@@H](O)[C@H]1C(=O)N[C@@H](CC)C(=O)N(C)[C@H](OCCN2CCC2)C(=O)N(C)[C@@H](CC(C)C)C(=O)N[C@@H](C(C)C)C(=O)N(C)[C@@H](CC(C)C)C(=O)N[C@@H](C)C(=O)N[C@H](C)C(=O)N(C)[C@@H](CC(C)C)C(=O)N(C)[C@@H](CC(C)C)C(=O)N(C)[C@@H](C(C)C)C(=O)N1C` [Entry 5], the EC50 at Cyclophilin A amounted to 66 nM.
